In paper PMC4339887, “Selective Sirt2 inhibition by ligand-induced rearrangement of the active site” (Nature Communications, 2015):
Entries after “also recorded” stand apart in the source; their conditions may differ.

Tests used:
Human Sirt2_56–356 = molecular target: T1, Human Sirt2_56–356 (Homo sapiens, UniProt Q8IXJ6); assay: competition analyses / inhibition kinetics, α-tubulin peptide, HPLC; format: biochemical; details: NAD+ competition analysis
T1 construct: Human Sirt2_56–356 (0.2 mg ml^−1 final concentration); His10 (N, cleaved yes); made in house; host or cells: E. coli BL21(DE3)Codonplus RIPL
T1 sequence (Q8IXJ6 56-356): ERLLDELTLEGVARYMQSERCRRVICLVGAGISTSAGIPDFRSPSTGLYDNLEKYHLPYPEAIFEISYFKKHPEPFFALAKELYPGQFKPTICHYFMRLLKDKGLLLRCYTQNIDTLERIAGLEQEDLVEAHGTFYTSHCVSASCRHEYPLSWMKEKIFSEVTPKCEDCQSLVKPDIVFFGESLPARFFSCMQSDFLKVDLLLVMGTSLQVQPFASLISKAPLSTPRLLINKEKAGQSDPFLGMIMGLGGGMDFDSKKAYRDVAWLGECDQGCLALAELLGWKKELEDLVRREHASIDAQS
Source text: The peak areas were integrated and converted to initial velocities calculated from the peak areas as the fraction of deacetylated peptide from total peptide.

human Sirt1 = molecular target: T2, human Sirt1 (Homo sapiens, UniProt Q96EB6); assay: HPLC-based conversion assay, non-labelled acetyl-lysine α-tubulin peptide; details: read-out: inhibition of Sirt1
T2 sequence (Q96EB6 133-747): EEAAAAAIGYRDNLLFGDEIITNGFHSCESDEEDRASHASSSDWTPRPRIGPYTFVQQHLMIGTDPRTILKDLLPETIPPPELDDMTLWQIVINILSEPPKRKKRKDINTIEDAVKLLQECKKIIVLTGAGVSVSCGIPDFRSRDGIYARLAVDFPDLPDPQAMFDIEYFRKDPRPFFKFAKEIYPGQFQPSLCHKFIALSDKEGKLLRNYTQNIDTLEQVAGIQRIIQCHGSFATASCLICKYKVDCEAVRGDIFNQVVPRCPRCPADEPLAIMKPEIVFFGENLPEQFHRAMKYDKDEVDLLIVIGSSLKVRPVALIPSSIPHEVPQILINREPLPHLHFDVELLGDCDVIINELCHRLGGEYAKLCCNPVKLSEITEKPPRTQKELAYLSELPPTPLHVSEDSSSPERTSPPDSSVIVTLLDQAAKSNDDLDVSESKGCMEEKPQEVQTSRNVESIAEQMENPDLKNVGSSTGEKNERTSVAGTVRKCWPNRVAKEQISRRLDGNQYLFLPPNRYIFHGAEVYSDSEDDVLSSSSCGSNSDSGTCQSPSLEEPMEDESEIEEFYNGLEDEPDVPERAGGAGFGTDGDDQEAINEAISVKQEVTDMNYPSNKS

[1] = tested on: α-tubulin acetylation in HeLa cells; assay: tubulin acetylation, western blot; format: cell-based; details: various concentrations, 5 h
Source text: Cell samples were then separated using SDS–PAGE (12.5% (w/v) polyacrylamide), transferred to an activated nitrocellulose membrane (Bio-Rad), blocked with non-fat dry milk (Roth, 5% (w/v), TBS, 0.1% (v/v) Tween 20) and probed with an anti-acetyl-α-tubulin antibody (1:1,000, Sigma-Aldrich, T6793) and an anti-GAPDH antibody (1:2,000–1:5,000, Sigma-Aldrich, G9545) as a loading control (Fusion SL, peqlab). An uncropped blot is shown in Supplementary Fig. 8.

BubR1 in HeLa cells = assay: abundance of BubR1, western blot; format: cell-based
Experimental: Cells were washed with PBS, lysed in IPLS (50 mM Tris/HCl, 150 mM NaCl, 0.5 mM EDTA, 0.5% (v/v) NP-40, pH 7.5, supplemented with Complete protease inhibitors (Roche)). Samples were pelleted and resuspended in 1 × SDS–PAGE sample buffer and heated (95 °C, 5 min). Cell samples were separated using SDS–PAGE (10% (w/v) polyacrylamide), transferred to a nitrocellulose membrane (Bio-Rad), blocked with non-fat dry milk (Roth, 5% (w/v), TBS, 0.1% (v/v) Tween 20) and probed with the anti-BubR1 (1:5,000, BD Biosciences, 612502) and anti-tubulin (1:5,000, Sigma-Aldrich, T5168) as a loading control. Uncropped blots are shown in the Supplementary Fig. 8.

[2] = tested on: acetylation of the microtubule network in HeLa cells; assay: immunofluorescence microscopy of acetylated microtubule network; format: cell-based; details: 4 h
Source text: Cells were then stained with an anti-acetyl-α-tubulin antibody (Sigma-Aldrich, T6793) and then probed with a secondary Alexa 546 conjugated anti-mouse-antibody (Invitrogen). Nuclei were counterstained with DAPI (4',6-diamidino-2-phenylindole). Coverslips were mounted with FluoroMount (Sigma-Aldrich) and sealed with DPX Mountant (Sigma-Aldrich). Images of the mounted samples were acquired on a Leica DM500 microscope equipped with a Leica DFC 395 FX camera and HBO 100 W lamp[40]. The microscope was run with the Leica Application Suite 4.4.0 software. Chroma UV filter set (No. C40888) and Leica N2.1 filter set (No. 513832) were used for DAPI and Alexa 546 signal acquisition, respectively, with a HCX FL Fluotar 40x/0.75 (dry) objective. Further details about the equipment and the settings that were used to acquire the images are found in the Supplementary Methods section. Unprocessed images are found in Supplementary Fig. 9. […]
Immunocytochemistry equipment and settings. The signal of Alexa 546 and DAPI of the same region were acquired with constant illumination parameters as grayscale 8-bit 600 dpi tiff files (1600u 1200 pixels). Alexa 546 was acquired after 639.1 ms with a gamma factor of 0.65 without multiplying. The gain was set to 1. DAPI-stained images were acquired after about 20 ms with the same parameters as the one for Alexa 546 image acquisition. The temperature in the microscope room was kept at RT. Representative regions of each samples were processed with Adobe Photoshop CS2 to generate images in RGB mode by copying the appropriate original greyscale images to the blue (nuclei, DAPI) and the red (acetylated D-tubulin signal, Alexa 546) channel, respectively. As adjustment, a minimal background subtraction was applied on all images during processing in the same manner. The resolution was changed from 600 dpi (source images) to 450 dpi without resampling (Fig. 7 of the main article). LUT (CLUT) of grayscale images of the acetylated D-tubulin signal and of the DAPI signal are shown in Supplementary Fig. 8. […]

Cc1cc(C)nc(SCC(=O)Nc2ncc(Cc3cccc4ccccc34)s2)n1 [SirReal2]
mode of inhibition towards NAD+ (Human Sirt2_56–356): partially non-competitive
inhibition at 100 µM (human Sirt1): 22%
level of α-tubulin acetylation [1]: tubulin hyperacetylation; also recorded: significant increase
abundance of BubR1 (BubR1 in HeLa cells; 50 μM, in relation to DMSO control): significantly reduced
abundance of BubR1 (BubR1 in HeLa cells; various concentrations, 16 h): reduction; also recorded: dose-dependent depletion
acetylation level of the microtubule network ([2]; 20 μM): induces hyperacetylation; also recorded: partial increase; also recorded: hyperacetylation of the microtubule network
acetylation level of the microtubule network ([2]; 50 μM): induces hyperacetylation
